PMC8175350, “Drug repurposing screens identify chemical entities for the development of COVID-19 interventions” (Nature Communications, 2021)
Where “and” joins values, the source holds several entries; their conditions need not be identical. Identical values can stand only once.

Experiments:
Calu-3 cells [1] = assay: cells; details: Homo sapiens, Calu-3, 48 h, read-out: Calu-3 cell count Sinf Average
Calu-3 cells [2] = test system: Calu-3 cells
HeLa-ACE2 cells [3] = assay: Uninfected HeLa-ACE2 24 h live/dead cytotoxicity counter screen; format: cell-based, human; details: for cytotox: HeLa-ACE2, replicate wells n=1-3
[4] = as above; format: cell-based, human; details: human, uninfected HeLa-ACE2 cells, geomean; read-out: uninfected HeLa-ACE2 cytotoxicity CC50
SARS-CoV-2 [5] = assay: microbe, parasite or virus in culture; format: cell-based; details: for %infected: Calu-3, replicate wells n=1, n=3
in vitro = details: human, Calu-3 uninfected cytotoxicity CC50 GeoMean
HeLa-ACE2 cells [6] = assay: Total cell count in the HeLa-ACE2 TOA (time of addition) assay; format: cell-based, human; details: Homo sapiens, HeLa-ACE2; read-out: HeLa-ACE2 TOA cell count EC50 GeoMean
SARS-CoV-2 [7] = assay: microbe, parasite or virus in culture; format: cell-based; details: 10 µM after 1 h infection

Cc1cccc(/C=N/Nc2cc(N3CCOCC3)nc(OCCc3ccccn3)n2)c1 [Apilimod]
Emax (Calu-3 cells [1]): 100%
uninfected Calu-3 CC50 (Calu-3 cells [2]): > 22.719 ×÷ 1.728 (n=4) μM
Calu-3 uninfected cytotoxicity Sinf Average (Calu-3 cells [2]; human, 48 h): -100%
cytotox (HeLa-ACE2 cells [3]; concentration log[M] -5): -15.1899 and -14.2304 and -15.9372 and -48.9424 and -19.1078 and -64.1429 and -33.3149 and -48.2124 and -41.1568
cytotox (HeLa-ACE2 cells [3]; concentration log[M] -5.47712): -17.5527 and -25.9243 and -24.6903 and -15.9737 and -27.2862 and -50.2857 and -23.1323 and -17.6598 and -11.2347
cytotox (HeLa-ACE2 cells [3]; concentration log[M] -5.95424): -21.6878 and -13.7145 and -16.6804 and -1.094 and -5.874 and -20.5714 and -18.1516 and -18.9599 and -15.1279
cytotox (HeLa-ACE2 cells [3]; concentration log[M] -6.43136): -15.6962 and -19.7334 and -18.8274 and -9.409 and -6.171 and -21.1429 and -10.736 and -20.585 and -14.4605
cytotox (HeLa-ACE2 cells [3]; concentration log[M] -6.90849): -10.4641 and -3.052 and -4.5417 and -0.2188 and 4.684 and -6.286 and -9.519 and -8.4507 and -3.003
cytotox (HeLa-ACE2 cells [3]; concentration log[M] -7.38561): -11.3924 and -4.944 and -1.156 and 4.012 and 4.981 and -8.571 and -7.637 and -6.609 and -5.006
cytotox (HeLa-ACE2 cells [3]; concentration log[M] -7.86273): 2.7 and 20.6793 and 5.12 and -0.3647 and 26.8401 and -1.429 and 8.744 and -0.2167 and 1.335
cytotox (HeLa-ACE2 cells [3]; concentration log[M] -8.33985): 2.785 and -0.6449 and 6.028 and -5.1787 and 6.3197 and -9.571 and 2.435 and -18.4182 and -5.673
HeLa-ACE2 uninfected cytotoxicity Sinf Average (HeLa-ACE2 cells [3]; human, uninfected HeLa-ACE2 cells, 24 h): -100%
CC50 (HeLa-ACE2 cells [3]; read-out: HeLa-ACE2 uninfected cytotoxicity CC50 GeoMean): > 27.8 µM
CC50 at 24 h [4]: > 11.5 µM
%infected (SARS-CoV-2 [5]; concentration log[M] -5.00096): -58.2494% and -10.7285% and -2.646% and 11.3057% and -47.5294% and -51.353%
%infected (SARS-CoV-2 [5]; concentration log[M] -5.47808): -10.4468% and 0.966% and 9.424% and 3.404% and -12.1011% and -29.1583%
%infected (SARS-CoV-2 [5]; concentration log[M] -6.08014): 2.91% and 6.263% and 12.1167% and 11.1729% and -9.57% and -12.4389%
%infected (SARS-CoV-2 [5]; concentration log[M] -6.42922): 21.192% and -5.066% and 8.086% and -7.067% and 14.7327% and 9.4894%
%infected (SARS-CoV-2 [5]; concentration log[M] -6.90623): 6.025% and 8.588% and -2.01% and -3.119% and -8.7% and -28.761%
%infected (SARS-CoV-2 [5]; concentration log[M] -7.50836): -9.733% and 6.842% and -19.0732% and 2.18% and 27.3224% and 13.8795%
%infected (SARS-CoV-2 [5]; concentration log[M] -7.85886): -0.02646% and -15.3004% and -8.282% and -4.911% and 23.6525% and 32.9983%
%infected (SARS-CoV-2 [5]; concentration log[M] -8.33602): -3.111% and 7.385% and 13.7435% and 0.4251% and 25.7217% and 25.5685%
Emax (SARS-CoV-2 [5]; Severe acute respiratory syndrome coronavirus 2, Calu-3, 48 h, read-out: Calu-3 CoV-2 Sinf Average): 100%
EC50 (SARS-CoV-2 [5]; read-out: Calu-3 CoV-2 EC50 GeoMean): > 9.38 µM
Calu-3 SI (SARS-CoV-2 [5]; selectivity index, uninfected Calu-3 CC50 / SARS-CoV-2 EC50): > 2.42
CC50 at 48 h (in vitro): > 22.7 µM
EC50 (HeLa-ACE2 cells [6]): > 9.61 µM
SARS-CoV-2 % infected cells (SARS-CoV-2 [7]; 4:00:00 post infection): 0.1789% and 0.1674% and 0.3723%
SARS-CoV-2 % infected cells (SARS-CoV-2 [7]; 5:00:00): 0.5955% and 0.5104% and 0.3072%
SARS-CoV-2 % infected cells (SARS-CoV-2 [7]; 6:00:00): 15.0073% and 13.3408% and 11.3931%
SARS-CoV-2 % infected cells (SARS-CoV-2 [7]; 7:00:00): 26.4613% and 25.6934% and 26.6142%
SARS-CoV-2 % infected cells (SARS-CoV-2 [7]; 8:00:00): 25.5362% and 27.3903% and 25.8074%
SARS-CoV-2 % infected cells (SARS-CoV-2 [7]; 10:00:00): 26.7887% and 26.2316% and 26.281%
SARS-CoV-2 % infected cells (SARS-CoV-2 [7]; 11:00:00): 30.9861% and 29.9763% and 30.0495%
SARS-CoV-2 % infected cells (SARS-CoV-2 [7]; 12:00:00): 30.3761% and 30.6313% and 31.3141%
